Measured values from patent US20250011326A1, “FUSED HETEROCYCLIC DERIVATIVES AND THEIR USE IN THE TREATMENT OF HBV INFECTION” (Janssen Sciences Ireland Unlimited Company, priority 2021, published 2025).

Assays:
HBV = assay: Anti-HBV activity: intracellular HBV DNA by real-time PCR in HepG2.117 cell line; assay type: cell-based, Hepatitis B virus; conditions: HepG2.117 cells, HBV replication induced (absence of doxycycline), 3 days of treatment, mean value
Procedure: The anti HBV activity was measured using the HepG2.117 cell line, a stable, inducibly HBV producing cell line, which replicates HBV in the absence of doxycycline (Tet-off system). The HepG2 cell line is available from ATCCR under number HB-8065 Transfection of the HepG2 cell line can be as described in Sun and Nassal 2006 Journal of Hepatology 45 (2006) 636-645 “Stable HepG2- and Huh7-based human hepatoma cell lines for efficient regulated expression of infectious hepatitis B virus”.
For the antiviral assay, HBV replication was induced, followed by a treatment with serially diluted compound in 96-well plates. After 3 days of treatment, the antiviral activity was determined by quantification of intracellular HBV DINA using real-time PCR and an HBV specific primer set and probe.

[1] = Cytotoxicity, cell viability by ATPlite Luminescence Assay; assay type: cell-based, human; conditions: human, HepG2 or HepG2 117 cells, 3-days incubation (unless marked *), mean value
Procedure: (§1) Cytotoxicity of the compounds was tested using HepG2 or HepG2 117 cells, incubated for 3 or 4 days in the presence of compounds. The viability of the cells was assessed using the PERKIN ELMER ATPlite Luminescence Assay System.”

HepG2 or HepG2 117 cells = assay: as above; assay type: cell-based, human; conditions: 3-days incubation (unless marked *), mean value
Procedure: as §1

[2] = Hepatitis B virus, HepG2.117, 72 h

Structure (SMILES)	EC50 (HBV) [µM]	CC50 at 3 days [1] [µM]	EC50 (HBV; [2]) [µM]	CC50 (HepG2 or HepG2 117 cells) [µM]
CC(=O)NC[C@@H]1Cn2nc3c(c2C(=O)N1[C@@H](C)c1ccc(OC(F)F)cc1)CN(C(=O)c1ccc(Cl)c(C#N)c1)[C@H](C)C3 (single isomer, unassigned) [Compound 1B, N-(((3R,8R*)-2-(4-chloro-3-cyanobenzoyl)-9-((S*)-1-(4-(difluoromethoxy)phenyl)ethyl)-3-methyl-10-oxo-1,2,3,4,7,8,9,10-octahydropyrido[4′,3′:3,4]pyrazolo[1,5-a]pyrazin-8-yl)methyl)acetamide]	1.48	> 50		
CC(c1ccc(OC(F)F)cc1)N1CC(CO)n2nc3c(c2C1=O)CN(C(=O)c1ccc(Cl)c(C#N)c1)[C@H](C)C3 (stereo partly drawn) [Compound 12, 2-Chloro-5-((3R)-9-(1-(4-(difluoromethoxy)phenyl)ethyl)-7-(hydroxymethyl)-3-methyl-10-oxo-1,2,3,4,7,8,9,10-octahydropyrido[4′,3′:3,4]pyrazolo[1,5-a]pyrazine-2-carbonyl)benzonitrile]		24.9	0.068	
CNC(=O)[C@H]1Cn2nc3c(c2C(=O)N1Cc1ccc(OC(F)F)cc1)CN(C(=O)c1ccc(Cl)c(C#N)c1)[C@H](C)C3 [Compound 3A]		> 50	0.427	
CC(c1ccc(OC(F)F)cc1)n1ncn2nc3c(c2c1=O)CN(C(=O)c1ccc(Cl)c(C#N)c1)[C@H](C)C3 (stereo in doubt) [Compound 9A, 2-Chloro-S—((R)-2-((R*)-1-(4-(difluoromethoxy)phenyl)ethyl)-8-methyl-1-oxo-1,2,7,8,9,10-hexahydropyrido[4′,3′:3,4]pyrazolo[1,5-d][1,2,4]triazine-9-carbonyl)benzonitrile]	0.553			> 50
CNC(=O)[C@@H]1Cn2nc3c(c2C(=O)N1[C@@H](C)c1ccc(OC(F)F)cc1)CN(C(=O)c1ccc(Cl)c(C#N)c1)[C@H](C)C3 (single isomer, unassigned) [Compound 2B, (3R,8S*)-2-(4-chloro-3-cyanobenzoyl)-9-((S*)-1-(4-(difluoromethoxy)phenyl)ethyl)-N,3-dimethyl-10-oxo-1,2,3,4,7,8,9,10-octahydropyrido[4′,3′:3,1]pyrazolo[1,5-a]pyrazine-8-carboxamide]		> 50	0.183	
CC(c1ccc(OC(F)F)cc1)n1ncn2nc3c(c2c1=O)CN(C(=O)c1ccc(Cl)c(Cl)c1)[C@H](C)C3 (single isomer, unassigned) [Compound 8A, (R)-9-(3,4-Dichlorobenzoyl)-2-((R*)-1-(4-(difluoromethoxy)phenyl)ethyl)-8-methyl-7,8,9,10-tetrahydropyrido[4′,3′:3,4]pyrazolo[1,5-d][1,2,4]triazin-1(2H)-one]		> 50	0.067	
CC(c1ccc(OC(F)F)cc1)n1ncn2nc3c(c2c1=O)CN(C(=O)c1ccc(Cl)c(C#N)c1)[C@H](C)C3 (single isomer, unassigned) [Compound 9B, 2-chloro-5-((R)-2-((S*)-1-(4-(difluoromethoxy)phenyl)ethyl)-8-methyl-1-oxo-1,2,7,8,9,10-hexahydropyrido[4′,3′:3,4]pyrazolo[1,5-d][1,2,4]triazine-9-carbonyl)benzonitrile]		> 50	0.13	
CNC(=O)[C@H]1CN([C@@H](C)c2ccc(OC(F)F)cc2)C(=O)c2c3c(nn21)C[C@@H](C)N(C(=O)c1ccc(Cl)c(C#N)c1)C3 (single isomer, unassigned) [Compound 11B, (3R,7R*)-2-(4-chloro-3-cyanobenzoyl-9-((S*)-1-(4-(difluoromethoxy)phenyl)ethyl)-N,3-dimethyl-10-oxo-1,2,3,4,7,8,9,10-octahydropyrido[4′,3′:3,4]pyrazolo[1,5-a]pyrazine-7-carboxamide]		> 50	0.058	
CC(c1ccc(OC(F)F)cc1)n1ncn2nc3c(c2c1=O)CN(C(=O)c1ccc(Cl)c(C(F)(F)F)c1)[C@H](C)C3 (single isomer, unassigned) [Compound 7A, (R)-9-(4-Chloro-3-(trifluoromethyl)benzoyl)-2-((R*)-1-(4-(difluoromethoxy)phenyl)ethyl)-8-methyl-7,8,9,10-tetrahydropyrido[4′,3′:3,4]pyrazolo[1,5-d][1,2,4]triazin-1(2H)-one]		46.3	0.194	
CC(=O)NC[C@@H]1Cn2nc3c(c2C(=O)N1[C@@H](C)c1ccc(OC(F)F)cc1)CN(C(=O)c1ccc(Cl)c(C#N)c1)[C@H](C)C3 (single isomer, unassigned) [Compound 1D, N-(((3R,8S*)-2-(4-chloro-cyanobenzoyl)-9-((S*)-1-(4-(difluoromethoxy)phenyl)ethyl)-3-methyl-10-oxo-1,2,3,4,7,8,9,10-octahydropyrido[4′,3′:3,4]pyrazolo[1,5-a]pyrazin-8-yl)methyl)acetamide]	0.491			> 50
CC(c1ccc(OC(F)F)cc1)N1C(=O)c2c3c(nn2CC1CO)C[C@@H](C)N(C(=O)c1ccc(Cl)c(C#N)c1)C3 (stereo partly drawn) [Compound 4, 2-Chloro-5-((3R)-9-(1-(4-(difluoromethoxy)phenyl)ethyl)-8-(hydroxymethyl)-3-methyl-10-oxo-1,2,3,4,7,8,9,10-octahydropyrido[4′,3′:3,4]pyrazolo[1,5-a]pyrazine-2-carboaryl)benzonitrile]		25	0.227	
CC(c1ccc(OC(F)F)cc1)n1ncn2nc3c(c2c1=O)CN(C(=O)c1ccc(Cl)c(C(F)(F)F)c1)[C@H](C)C3 (stereo in doubt) [Compound 7B, (R)-9-(4-chloro-3-(trifluoromethyl)benzoyl)-2-((S*)-1-(4-(difluoromethoxy)phenyl)ethyl)methyl-7,8,9,10-tetrahydropyrido[4′,3′:3,4]pyrazolo[1,5-d][1,2,4]triazin-1(2H)-one]	0.262			> 50
CNC(=O)CC[C@H]1Cn2nc3c(c2C(=O)N1Cc1ccc(OC(F)F)cc1)CN(C(=O)c1ccc(Cl)c(C#N)c1)[C@H](C)C3 [Compound 5, 3-((3R,8S)-2-(4-chloro-3-cyanobenzoyl)-9-(4-(difluoromethoxy)benzyl)-3-methyl-10-oxo-1,2,3,4,7,8,9,10-octahydropyrido[4′3′:3,4]pyrazolo[1,5-a]pyrazin-8-yl)-N-methylpropanamide]		> 50	0.414	
CC1Cn2nc3c(c2C(=O)N1Cc1ccc(OC(F)F)cc1)CN(C(=O)c1ccc(Cl)c(Cl)c1)[C@H](C)C3 (single isomer, unassigned) [Compound 6A, (3R,8R*)-2-(3,4-dichlorobenzoyl)-9-(4-(difluoromethoxy)benzyl)-3,8-dimethyl-1,2,3,4,8,9-hexahydropyrido[4′,3′:3,4]pyrazolo[1,5-a]pyrazin-10(7H)-one]		4.5	0.032	
CC(=O)NC[C@H]1CN([C@@H](C)c2ccc(OC(F)F)cc2)C(=O)c2c3c(nn21)C[C@@H](C)N(C(=O)c1ccc(Cl)c(C#N)c1)C3 (single isomer, unassigned) [Compound 13D, N-(((3R,7S*)-2-(4-chloro-3-cyanobenzoyl)-9-((S*)-1-(4-(difluoromethoxy)phenyl)ethyl)-3-methyl-10-oxo-1,2,3,4,7,8,9,10-octahydropyrido[4′,3′:3,4]pyrazolo[1,5-a]pyrazin-7-yl)methyl)acetamide]		> 50	0.344	
CC(c1ccc(OC(F)F)cc1)n1ccn2nc3c(c2c1=O)CN(C(=O)c1ccc(Cl)c(Cl)c1)[C@H](C)C3 (single isomer, unassigned) [Compound 10B, (R)-2-(3,4-dichlorobenzoyl)-9-((S*)-1-(4-(difluoromethoxy)phenyl)ethyl)-3-methyl-1,2,3,4-tetrahydropyrido[4′,3′:3,4]pyrazolo[1,5-a]pyrazin-10(9H)-one]	0.294			> 50
CC(=O)NC[C@@H]1CN([C@@H](C)c2ccc(OC(F)F)cc2)C(=O)c2c3c(nn21)C[C@@H](C)N(C(=O)c1ccc(Cl)c(C#N)c1)C3 (single isomer, unassigned) [Compound 13B, N-(((3R,7R*)-2-(4-chloro-3-cyanobenzoyl)-9(S*)-1-(4-(difluoromethoxy)phenyl)ethyl)-3-methyl-10-oxo-1,2,3,4,7,8,9,10-octahydropyrido[4′,3′:3,4]pyrazolo[1,5-a]pyrazin-7-yl)methyl)acetamide]		> 50	0.167	
CC(c1ccc(OC(F)F)cc1)n1ccn2nc3c(c2c1=O)CN(C(=O)c1ccc(Cl)c(Cl)c1)[C@H](C)C3 (single isomer, unassigned) [Compound 10A, (R)-2-(3,4-dichlorobenzoyl)-9-((R*)-1-(4-(difluoromethoxy)phenyl)ethyl)-3-methyl-1,2,3,4-tetrahydropyrido[4′,3′:3,4]pyrazolo[1,5-a]pyrazin-10(9H)-one]	0.072	32.8		
